Data: US20150352072A1, “ZINC N-ACETYL TAURINATE FOR THE TREATMENT OF PROSTATE CANCER” (TRI-INOV, priority 2011, published 2015)
Entries after “also recorded” stand apart in the source; their conditions may differ.

Tests used:
Assay type in all cases: cell-based
cyclin-D1 mRNA [1] = assay: Cyclin-D1 mRNA by RT-Q-PCR in normal cells; conditions: normal cells (PrECs), 24 hours
Procedure: (§1) For the dose-dependence studies, the cells (50% confluent) were treated with ATA-Zn at the concentrations of 10^−3, 10^−4, 10^−5, 10^−6, 10^−7, 10^−8 and 10^−9M, for 24 hours, 48 hours and 72 hours in their respective growth medium. After 48 h of treatment, the cells were harvested and counted in the pellet. In parallel, the cell lysates were prepared in order to extract the mRNA for RT-Q-PCR and Western blotting.
(§2) The mRNA was extracted from the cells in culture using the “SV Total RNA isolation” kit from the company Promega and according to the procedure hereinafter:
(§3) A reverse transcription of the RNA was then carried out using the ready to go kit (kit known as “Ready To Go, You Prime First Strand Beads” commercially available from Amersham Biosciences, Piscataway, United States) in accordance with the supplier's instructions using 3 μg of RNA.
(§4) The “LightCycler-Fast Start DNA Master SYBR Green I” test commercially available from Roche Diagnostics, Meylan, France, was used to quantify the gene expression by means of a real-time polymerase chain reaction (PCR). The PCR (program: 95° C., 30 seconds; 40 cycles: 95° C., 5 seconds; 60° C., 35 seconds) was carried out using a “Mastercycler ep realplex” apparatus sold by the company Eppendorf, Hamburg, Germany.
(§5) The expression of the target gene was standardized relative to the GAPDH housekeeping gene. […]

Bax and Bcl-2 = assay: Bax/Bcl-2 mRNA by RT-Q-PCR in PrECs; conditions: Bax and Bcl-2 base amount too low for PCR amplification, a conclusion
Procedure: as §1, §2, §3, §4, §5

[2] = system: Normal prostate epithelial cells (PrECs); assay: Cell count by Trypan blue exclusion, normal PrECs
Procedure: Normal prostate epithelial cells (PrECs) and the PrEC growth medium sold by the company Cambrex Bioscience (Walkersville, Md.) were used by way of comparison.
as §1
(§6) In order to evaluate the number of cells, the cell pellets were mixed with 1 ml of their respective medium and the cell viability and the number of cells were evaluated by means of a Trypan blue exclusion test.

[3] = system: LNCaP prostate cancer cell line; assay: Cell count by Trypan blue exclusion, LNCaP cancer cells
Procedure: The LNCaP prostate cancer cell line, deposited in the ATCC under No. CRL-1740, was used.
The cell culture medium was RPMI 1640 complete growth medium (ATCC No. 30-2001), containing 2 mM L-glutamine, 10 mM HEPES and 1.0 mM sodium pyruvate, to which the following were added: • 1) sodium carbonate and glucose in amounts sufficient to obtain a sodium carbonate concentration of 20 mM and a glucose concentration of 25 mM, • 2) […] by volume of a mixture of antibiotics (10 μg/ml of gentamycin, 100 IU of penicillin, 100 μg/ml of streptomycin), and • 3) 10% by volume of fetal calf serum.
as §1, §6
The viable cells and the non-viable cells were counted after Trypan blue exclusion. […] The mortality evolved in the opposite direction, with a maximum increase of about 50%. The concentration of 10^−3M was toxic. The results obtained are reported on the graphs of FIGS. 1a and 1b, which give the percentage of cancer cells relative to the control (cell culture without ATA-Zn) as a function of the concentration of ATA-Zn. FIG. 1a relates to the viable cells and FIG. 1b relates to the non-viable cells.

Nrf-2 protein = Nrf-2 protein by Western blotting in LNCaP cells; conditions: 48 hours, standardized relative to actin
Procedure: (§7) The cells were lysed in the buffer for the radioimmunoprecipitation test, having the composition hereinafter:
(§8) The proteins were then separated by SDS-PAGE and were transferred onto a Hybond-P PVDF membrane (Amersham Biosciences, Pantin, France). The membranes were incubated for 1 hour at ambient temperature with a blocking solution consisting of skimmed milk powder at 5% in TBS-T buffer (50 mM Tris-HCl, pH 8.0, 150 mM NaCl, Tween-20 at 0.1%).
(§9) The membranes were then incubated with rabbit primary antibodies directed against cyclin-D1 (No. 29785); the markers Bax (No. 1063.1) and BCL-2 (No. 1017-1); Nrf-2 (No. 2178-1) and SOD-1 (No. 2018-1) all sold by the company Epitomies under the references indicated above, and the A2103 anti-actin, N-terminal, antibodies sold by the company Sigma-Aldrich (Saint Quentin Fallavier, France) in the blocking solution overnight at 4° C. The said antibodies were diluted in accordance with the manufacturer's instructions to 1/1000. The anti-actin antibodies served to standardize the membranes. […]
(§10) LNCaP cells were incubated with a range of ATA-Zn concentrations for 48 hours. The amount of Nrf-2 and SOD-1 proteins were then measured by Western blotting. The quantification was carried out with the “Quantity One” software and the results were standardized relative to the actin data. […]

cyclin-D1 mRNA [4] = assay: Cyclin-D1 mRNA by RT-Q-PCR in LNCaP cells; conditions: 10^−5-10^−9M, after 24 hours of exposure
Procedure: as §1, §2, §3
(§11) The “LightCycler-Fast Start DNA Master SYBR Green I” test commercially available from Roche Diagnostics, Meylan, France, was used to quantify the gene expression by means of a real-time polymerase chain reaction (PCR). […]
The amount of cyclin-D1 mRNA was measured by RT-Q-PCR according to the procedure previously described in the section entitled “Materials and methods”. […]

Bax/Bcl-2 ratio = assay: Bax/Bcl-2 mRNA ratio by RT-Q-PCR in LNCaP cells; conditions: 10^−5-10^−9M, 48 hours
Procedure: as §1, §2, §3, §11
LNCaP cells were incubated with various concentrations of ATA-Zn (10^−5-10^−9M) for 48 hours. The change in the synthesis of Bax mRNA and Bcl-2 mRNA was measured by RT-Q-PCR according to the procedure described previously in the section entitled “Materials and methods”.

SOD-1 protein = SOD-1 protein by Western blotting in LNCaP cells; conditions: 48 hours, standardized relative to actin
Procedure: as §7, §8, §9, §10

## zinc N-acetyltaurinate [ATA-Zn]
cyclin-D1 mRNA [1]
  synthesis of cyclin-D1 mRNA: no effect
Bax and Bcl-2
  apoptosis in normal PrECs: not influenced
[2]; PrECs, 10^−3M
  toxicity at the dose of 10^−3M: toxic
[2]; PrECs, 10^−3M, 72 hours of incubation
  state of cells after 72 hours with 10^−3M: completely dead
[2]; normal PrECs, up to 72 hours of incubation, doses below 10^−3M
  effect on the number of cells: no effect
[3]; LNCaP cancer cells of the prostate, 48 hours, each dose
  antiproliferative effect / number of cells: antiproliferative effect; also recorded: reduced the number of cells at each dose
[3]; LNCaP, 10^−3M
  toxicity at the concentration of 10^−3M: toxic
[3]; LNCaP, 48 hours of incubation, highest concentration (10^−4), relative to control
  maximum reduction of the number of cells: 25%
[3]; LNCaP, 48 hours of incubation, relative to control
  maximum increase of mortality (non-viable cells): about 50%
[3]; general statement on the in vitro cell tests
  concentrations at which nontoxic: below 10^−3 M
Nrf-2 protein
  Nrf-2 protein: repressed
cyclin-D1 mRNA [4]
  synthesis of cyclin-D1 mRNA: reduces
Bax/Bcl-2 ratio
  Bax/Bcl-2 ratio (mRNA): greatly increased
SOD-1 protein
  level of the SOD-1 protein: decreases
